Measured values reported in PubChem BioAssay AID179 (DTP/NCI, 2004).
The source made the active and inactive calls.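 The calls were made as follows: active = compounds giving half or more protection of infected cells from virus-caused growth loss, again on retest; inactive = the rest.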 Where a SMILES comes first, the peptide text is derived from it.

Test system: CEM cells HIV-1 protection, formazan growth assay
Test: NCI AIDS Antiviral Assay
Conditions: for IC50: measured here: growth of uninfected CEM cells
Method: The ability of compounds to protect human CEM cells from HIV-1 infection is measured as a screen for new compounds capable of inhibiting the HIV virus. Five concentrations of drug were tested on uninfected and infected cells and cell growth was measured using a soluble formazan assay. […] Compounds that provided at least 50% protection were retested. Compounds that provided at least 50% protection on retest were listed as moderately active. Compounds that reproducibly provided 100% protection were listed as confirmed active. […] Note that the inability to provide protection could be due to toxicity.

Compound	EC50 [µM]	IC50 [µM]	outcome
COc1cc2c(c(OC)c1OC)-c1ccc(OC)c(=O)cc1[C@@H](NC(=O)c1ccccc1)CC2	> 0.2	0.00339	–
CCOC(=O)C(C)(C)Oc1ccc2c(-c3ccccc3)cc(=O)oc2c1	> 20.4	> 20.4	–
NN=C1/C(=C\c2ccccc2)CCC/C1=C/c1ccccc1	> 64.6	> 64.6	–
N#CCCC1C(=O)CCCC1=O	> 200	> 200	–
CCCCCCCCCCOCCC(=O)OCC1OC(n2cc(C)c(=O)[nH]c2=O)CC1N=[N+]=[N-] (stereo not drawn)	–	33.9	active
COc1cc(C(=O)C(CO)Oc2ccccc2OC)ccc1O (stereo not drawn)	> 794	123	–
NC(=O)c1cc(N(CCO)CCO)c([N+](=O)[O-])cc1[N+](=O)[O-]	> 200	> 200	–
c1ccc(CSCSCc2ccccc2)cc1	–	–	inactive
COC1/C=C/OC2(C)Oc3c(C)c(O)c4c(O)c(c(/C=N/N5C(C)CN(Cc6ccc(NC(C)=O)cc6)CC5C)c(O)c4c3C2=O)NC(=O)C(C)=C/C=C/C(C)C(O)C(C)C(O)C(C)C(OC(C)=O)C1C (stereo not drawn)	> 200	9.12	–
Cc1ccc(NC(=O)OCC(COc2ccc(Cl)cc2)OC(=O)Nc2ccc(C)cc2)cc1 (stereo not drawn)	> 15.5	> 15.5	–
Cc1nn(-c2ccccc2)c(-c2ccccc2[N+](=O)[O-])c1CC#N	–	–	inactive
O=c1[nH]c2ccccc2c2c1CCO2	–	–	inactive
O=S1(=O)OC2(CCCCC2)c2ccccc21	> 209	> 209	–
COC(=O)CCC(=O)N1CC1C (stereo not drawn)	–	–	inactive
Nc1ccccc1-c1nc2c(ccc3ccccc32)[nH]1	> 72.4	57.5	–
CCOc1cc(NCCCN)c2nc(OCc3ccccc3)ccc2c1	> 200	25.7	–
CCCCC1=C(C(=O)N2CCOCC2)C2(OCCO2)C1=O	> 200	53.7	–
NC(=S)SC1=NNC2(C(=O)N1)c1ccccc1-c1ccccc12	> 200	20.9	–
C[Si](C)(C)C1(Sc2ccccc2)SCCCS1	–	–	inactive
NC(CCC(=O)NC(CSc1ccc([N+](=O)[O-])cc1[N+](=O)[O-])C(=O)NCC(=O)O)C(=O)O (stereo not drawn)	> 525	> 525	–
CCCCCCCCCCCCCCCCOCC(COC1OC(CS(=O)(=O)O)C(O)C(O)C1O)OCCCCCCCCCCCCCCCC (stereo not drawn)	100	123	–
Cc1oc2nc(N(C)C)nc(Cl)c2c1C	–	–	inactive

Compound	EC50 [µM]	IC50 [µM]	outcome
O=[N+]([O-])c1c[c]([Sb](=[O])([OH])[OH])ccc1Cl	> 200	> 200	–
CC(=O)CCn1c(=S)sc2ccccc21	> 200	93.3	–
COC1OC(C(=O)O)C2OC(C)(C)OC12 (stereo not drawn)	> 200	> 200	–
Cc1cccc(C2ON=C(c3ccccc3)N2C23CC4CC(CC(C4)C2)C3)c1 (stereo not drawn)	> 200	49	–
Cc1ccccc1N1OS(=O)(=O)CC1(C#N)c1ccccc1 (stereo not drawn)	> 83.2	> 83.2	–
c1ccc2nc3c(nc2c1)[nH]c1ccccc13	> 12.3	> 12.3	–
CC1=C(\C=C/C(C)=C/C=C/C(C)=C/C=N/N=C/C=C(C)\C=C\C=C(C)/C=C/C2=C(C)CCCC2(C)C)C(C)(C)CCC1	> 200	45.7	–
O=c1c2ccc3cccc4c(=O)cc(c5ccccc15)-c2c34	–	–	inactive
CC(C1=CC=C2[C@@H]3CCC4CC(N(C)C)CC[C@]4(C)C3CC[C@]12C)N(C)C=O (stereo partly drawn)	> 35.5	> 35.5	–
c1ccc(CN2COc3c(c4c(c5ccccc35)OCN(Cc3ccccc3)C4)C2)cc1	> 61.7	> 61.7	–
O=C1OCC(Cl)O1 (stereo not drawn)	> 200	> 200	–
CCN(CC)CCOc1cccc(/C=C(\C#N)c2ccccc2)c1	> 100	7.76	–
O=C1CCCC2=C(N1)C(=O)C=CC2=O	> 955	8.71	–
c1ccc([P+](CC2CCCO2)(c2ccccc2)c2ccccc2)cc1 (stereo not drawn)	> 200	2.82	–
OC1C2[C@@H](O)CCCN2C[C@@H](O)[C@H]1O (stereo partly drawn)	> 200	> 200	–
O=c1c(C2=NCCC2)c(-c2ccc[nH]2)[nH]n1-c1ccccc1	> 200	> 200	–
COc1nc(N)c2c3c([nH]c2c1C#N)C(C)(C)c1ccccc1N3C	> 30.2	29.5	–
C/C=C/C(=O)[O-].C/C=C/C(=O)[O-].N.N.N.N.[Co+3].[O-][Cl+3]([O-])([O-])[O-]	–	–	inactive
CCC(=O)C1(N2CCOCC2)CCN(CCCC(=O)c2ccc(F)cc2)CC1	> 200	> 200	–
CC(=O)Nc1ccc(/C=C2\SC(=S)N(/C=C(\C(C)=O)C(N)=O)C2=O)cc1	> 200	72.4	–
CCOc1ccc(NC(=O)CC2C(=O)Nc3ccccc3S2=O)cc1 (stereo not drawn)	> 7.59	> 7.59	–
COC(=O)CN1CCN(c2cccc3c2CCCC3)CC1	> 200	64.6	–

Compound	EC50 [µM]	IC50 [µM]	outcome
Cc1ccc(C(=O)N2CCCCC2)cc1N=NN(C)C	> 263	240	–
O=C(O)C(CS(=O)(=O)O)S(=O)(=O)O (stereo not drawn)	–	–	inactive
O=C(c1ccccc1)C(c1ccccc1)C1(O)C(=O)Nc2c(Cl)cc(Cl)cc21 (stereo not drawn)	> 63.1	> 63.1	–
OC1(c2ccccc2)CC2CCC(C1)N2CCc1ccccc1 (stereo not drawn)	> 200	102	–
COc1ccc2c(ccc3c(C(=O)NCCCN(C)CCCNC(=O)c4cn(C)c5c4ccc4cc(OC)ccc45)cn(C)c32)c1	> 200	1.15	–
COC(=O)/C=C/C1C(C(=O)OC)C2(C(=O)OC)CCC1(C(=O)OC)N2 (stereo not drawn)	–	–	inactive
Nc1cc(S(N)(=O)=O)ccc1SSc1ccc(S(N)(=O)=O)cc1N	21.4	63.1	–
CCCCCCCCCCCCNC(=O)C(O)C(O)C(O)C(COS(=O)(=O)O)OS(=O)(=O)O (stereo not drawn)	> 200	30.2	–
CCOP(=O)(OCC)c1c(C(=O)OC)cc(=O)[nH]c1-c1ccc(C)cc1	> 200	7.94	–
COC(=O)C1CCC(=S)N1C(C)=O (stereo not drawn)	> 200	> 200	–
CCCCN(CC)C(=O)C1=C(C)NC(C)=C(C(=O)N(CC)CCCC)C1	> 200	135	–
CCc1nc2ccccn2n1	> 200	> 200	–
COC(=O)C1=C(C)NC2=C(C(=O)CCC2)C1CCS(C)=O (stereo not drawn)	> 200	> 200	–
CCN(CC)CC(C(C)=O)C(c1ccccc1)c1c(O)c2ccccc2oc1=O (stereo not drawn)	> 43.7	> 43.7	–
COc1c(C(=O)/C(=N/Nc2cccc(Cl)c2)C(C)=O)c(O)c(OC)c2occc12	> 200	85.1	–
CCOC(=O)CC1=CSC2=NCCN12	–	–	inactive
COc1ccc(OC)c(CNc2ccc(C(=O)O)cc2)c1	> 200	> 200	–
Cc1cc(=O)c2c(o1)-c1ccccc1C(c1ccccc1)c1ccccc1-2 (stereo not drawn)	1.51	25.1	–
CCCCNS(=O)(=O)c1ccc(-c2c3nc(c(-c4ccc(S(=O)(=O)NCCCC)cc4)c4ccc([nH]4)c(-c4ccc(S(=O)(=O)NCCCC)cc4)c4nc(c(-c5ccc(S(=O)(=O)NCCCC)cc5)c5ccc2[nH]5)C=C4)C=C3)cc1	> 200	> 200	–
CC(=O)N1C(c2[nH]c3ccccc3c2Cc2ccccc2)CCN1c1ccccc1 (stereo not drawn)	> 200	102	–
CCOC(=O)NC(Nc1ccc(C)cc1)(C(F)(F)F)C(F)(F)F	> 200	> 200	–
CC1CCCN(CC(O)CN2CCN(CC(O)CN3CCCC(C)C3)CC2)C1 (stereo not drawn)	> 13.2	> 13.2	–

Compound	EC50 [µM]	IC50 [µM]	outcome
[O-]c1on[n+](-c2ccccc2)c1-c1ccccc1	> 151	74.1	–
Nc1ccn(C2OC(C(O)CO)C(O)C2O)c(=O)n1 (stereo not drawn)	–	–	inactive
Cc1ccc(S(=O)(=O)C2CC2(Cl)Cl)cc1 (stereo not drawn)	–	–	inactive
N#Cc1c(N)c2c(c(-c3ccccc3)c1-c1ccccc1)C(=O)N(Nc1ccccc1)C2=O	> 200	27.5	–
CC(C)CC(NC(=O)C(CO)NC(=O)C(CCCCN)NC(=O)C(CCCCN)NC(=O)C(NC(=O)CNC(=O)C(C)NC(=O)C(CCCN=C(N)N)NC(=O)C(NC(=O)C(N)C(C)C)C(C)C)C(C)C)C(=O)O (stereo not drawn) (H-VVRAGVKKSL-OH; configuration not given here)	–	–	inactive
O=[N+]([O-])c1ccc(N=Nc2c(O)c(N=Nc3cc([N+](=O)[O-])cc([N+](=O)[O-])c3O)cc(N=Nc3cc(S(=O)(=O)O)cc4cc(S(=O)(=O)O)cc(O)c34)c2O)cc1	16.6	50.1	–
Nc1nc(OCc2ccccc2)c2[nH]cnc2n1	> 200	32.4	–
CNNc1ncnc2c1cnn2C	> 794	> 794	–
CC1(C)O[C@@H]2[C@@H](COC(C)(C)O[C@H]2C2SCCCS2)O1	> 200	> 200	–
Oc1[nH]c2ccccc2c1N=NC(=S)N1CCCCCC1	> 200	1.32	–
O=S(=O)(O)C(O)CC=C(C(O)S(=O)(=O)O)C(O)S(=O)(=O)O (stereo not drawn)	> 200	81.3	–
Cc1nc2sc(C)c(C)c2c(=O)o1	> 200	95.5	–
O=C1Cc2ccccc2CCc2ccsc21	64.6	83.2	–
CC(C(=O)O)C(C)(C)C(=O)O (stereo not drawn)	> 200	> 200	–
N=C(N)c1ccc(N=Nc2cc(N=Nc3ccc(C(=N)N)cc3)c(O)cc2O)cc1	85.1	> 100	–
O=C(CCn1[nH]c(=O)c(Cl)c(Cl)c1=O)NNC(=O)C[n+]1ccccc1	> 589	> 589	–
CSc1c(C#N)c(N)n(-c2ccc(Cl)cc2)c(=O)c1C#N	67.6	72.4	–
O=c1c2cccc3cccc(c4n1CCCN=4)c32	> 200	17	–
COc1ccccc1NC(=O)CC(=O)n1nc(C)c(N=Nc2ccccc2C(=O)O)c1C	> 302	245	–
CC[C@@H](CCCCC1CC[C@H]2CC(=O)C[C@@H]12)OC (stereo partly drawn)	> 200	102	–
